# Legend:
# bacteria = details: cited from earlier work
# [1] = test system: established biofilm in a previously used dental unit
# Source text: The experiment consisted of first re-invigorating an established biofilm in a previously used dental unit (A-Dec, a 1980 model) by running tap water, which had been determined to have a bacterial count of 10^4 cfu/mL, through the apparatus at hourly intervals between 9:00 a.m. and 4:00 p.m. for a total of 10 days. […] This limited the organisms monitored to those originating from the biofilm.
# Only one bottle was used at a time, either one containing deionized water (filtered through a 0.2 micron filter), or one containing a 1% H2O2 solution (Kroger brand 3%, diluted with deionized water to a 1% solution). Every morning at 9:00 a.m., the H2O2 bottle was connected to the compressed air cylinder and the junction box (which connects the reservoir to the dental cart). The second air cylinder was directly connected to the junction box which provided air to the dental cart tools and allowed the peroxide or water solution to be misted out of the high-speed handpiece to simulate dental office use. Both air cylinders were opened, and H2O2 was run through the unit by pressurizing the bottle. A 50 mL bolus of the H2O2 solution was run through as the line to the dental cart/handpiece holds approximately 40 mL. The H2O2 bottle was then removed, and the bottle containing only water was connected into the set-up in exactly the same way. Approximately 150 mL of water were run through the unit to ensure that all of the H2O2 was rinsed out of the line. For the remainder of the day, to simulate normal operation in a dentist's office where the water is left stagnant 99% of the time, the line was flushed with 150 mL of water every hour. At 4:00 p.m., a 2 mL sample of water was collected from the high-speed handpiece into a 15 mL sterile centrifuge tube (Fisher brand). […] The plates were counted using a MANOSTAT brand colony counter after 2-3 days incubation time at 37° C., selected as the optimal growth temperature for human pathogens.
# After the H2O2 treatment, 150 mL of sterile, deionized water was run through the unit at hourly intervals between the hours of 9:00 a.m. and 4:00 p.m. to simulate normal dental office operating conditions, where water is left stagnant most of the time. On day 35, the unit was treated for 4 days with 2% H2O2 in the same manner previously described. This was done to assess the effect of higher concentrations of peroxide on the biofilm.
# On day 40, the peroxide treatment procedure was changed slightly. Instead of applying the 2% H2O2 solution in the morning it remained in the dental lines overnight. From 9.00 a.m. to 4 p.m. daily the unit was flushed with 150 mL of sterile water. […] At 9.00 a.m., the following morning, the sterile water flushes began again.
# At the end of the day after the last flushing, a 2 mL sample of water was collected from the hand piece. […]
smiles,measurement,setting,value
OO [hydrogen peroxide],Effect against a broad range of pathogens,"bacteria; 3%, Juven and Pierson",quite effective
same,Minimum level for use in an acidic sanitizing solution (lowest concentration described as effective as a germicide),"bacteria; 21 CFR Part 178.1010 (c) (39), food utensils and food handling surfaces",≥ 72 ppm
same,Concentration for bacteriostatic activity,bacteria; Juven and Pierson,0.0005%
same,Onset of bactericidal activity,bacteria; Juven and Pierson,0.0034%
same,Concentration required for broad bactericidal action over a short time span (minutes),bacteria; Thomas et. al.,at least 0.1%
same,Concentrations suppressing bacterial growth (bacteriostatic action),bacteria; Thomas et. al.,≥ 0.0007%
same,Concentrations of biostatic control,bacteria,< 0.1%
same,Concentrations of efficient biocidal control,bacteria,1%
same,Concentrations at which it is a potent bacteriostat,bacteria; known,less than 100 ppm
same,Level demonstrated to be effective against existing biofilms,[1],2%
same,Microbial load of water from the high-speed handpiece,"[1]; 1% H2O2 applied in the morning, sample in the afternoon after hourly flushings, initial applications (Region II)",< 200 cfu/mL
same,Bacterial count of water from the handpiece,"[1]; 2% H2O2 left in the lines overnight, from day 40 onwards, initial results",< 200 cfu/mL
same,Bacterial cell counts,"[1]; 2% solution, applied in the morning, from day 35 for 4 days (Region IV)",lower bacterial cell counts than a 1% solution

# — US6555055B1, “System for preventing and remediating biofilms in dental equipment” (Lynntech, Inc., priority 1998, dated 2003)
